Experimental data published in ChEMBL document CHEMBL1614632, “Trend analysis of a database of intravenous pharmacokinetic parameters in humans for 670 drug compounds” (Drug Metab Dispos, 2008).
Numbered stars: 1 amine (or outer) side, 2 acyl side, 3 side chain; on linkers, the order of the positions; unused ones are H or OH. Bridge positions count the residues as written; N and C are the ends. Square brackets hold non-standard residues; d marks the D form. Peptide text beside a SMILES is read from it. * marks the point of attachment. X2 = O=C1C[C@@H](C(=O)[*:2])N([*:1])C[C@H]1CS[C@@H]1CN2CCC1CC2; NMePhe(4-NMe2) = CN[C@@H](Cc1ccc(N(C)C)cc1)C(=O)O; Picolinoyl(3-OH) = O=C(c1ncccc1O)*; Phg = N[C@H](C(=O)O)c1ccccc1; dAbu = CC[C@@H](N)C(=O)O

Legend:
[1] = clinical; conditions: human, in vivo, iv, CL
[2] = clinical; conditions: human, in vivo, iv
[3] = clinical; conditions: human, in vivo, iv; remark: listed apart in the source
[4] = clinical; conditions: human, in vivo, iv, t1/2
[5] = clinical; conditions: human, in vivo, iv, Vdss

Compound	clearance [1] [mL/min/kg]	MRT [2] [h]	fraction unbound [3]	half-life [4] [h]	Vd [5] [L/kg]
NS(=O)(=O)c1cc(C(=O)O)cc(N2CCCC2)c1Oc1ccccc1 [PIRETANIDE]	3.1	0.91	0.058	1.3	0.17
CCCNC(C)C(=O)Nc1ccccc1C (stereo not given) [PRILOCAINE]	29	2.2	0.72	1.8	3.7
CN(C)CCCN1c2ccccc2Sc2ccccc21 [PROMAZINE]	14	9.6	0.11	7.9	8.1
CC(C)c1cccc(C(C)C)c1O [PROPOFOL]	36	2.2	0.016	3.2	4.7
CCC(=O)O[C@](Cc1ccccc1)(c1ccccc1)[C@H](C)CN(C)C [PROPOXYPHENE]	15	13.3	0.24	18	12
CCCc1cc(=O)[nH]c(=S)[nH]1 [PROPYLTHIOURACIL]	3.1	1.8	0.18	1.3	0.34
CCc1nc(N)nc(N)c1-c1ccc(Cl)cc1 [PYRIMETHAMINE]	0.052	140	0.095	140	0.43
O=c1c(O)c(-c2ccc(O)c(O)c2)oc2cc(O)cc(O)c12 [QUERCETIN]	11	0.2	0.009	0.6	0.12
CC[C@H]1NC(=O)[C@@H](NC(=O)c2ncccc2O)[C@@H](C)OC(=O)[C@H](c2ccccc2)NC(=O)[C@@H]2CC(=O)[C@H](CS[C@@H]3CN4CCC3CC4)CN2C(=O)[C@H](Cc2ccc(N(C)C)cc2)N(C)C(=O)[C@@H]2CCCN2C1=O [QUINUPRISTIN] ({Picolinoyl(3-OH)}-T[dAbu]P[NMePhe(4-NMe2)][X2][Phg]; ester 1-C)	16	0.7	0.34	0.87	0.67
CC(NCCc1ccc(O)cc1)C(O)c1ccc(O)cc1 (stereo not given) [RITODRINE]	31	2.4	0.64	2.6	4.4
CCN(C)C(=O)Oc1cccc([C@H](C)N(C)C)c1 [RIVASTIGMINE]	12	1.9	0.6	1.4	1.3
C=CC[N+]1([C@H]2C[C@H]3[C@@H]4CC[C@H]5C[C@H](O)[C@@H](N6CCOCC6)C[C@]5(C)[C@H]4CC[C@]3(C)[C@H]2OC(C)=O)CCCC1 [ROCURONIUM]	3.7	0.95	0.54	1.6	0.21
CN(C)[C@@H]1C(O)=C(C(=O)NCN2CCCC2)C(=O)[C@@]2(O)C(O)=C3C(=O)c4c(O)cccc4[C@@](C)(O)[C@H]3C[C@@H]12 [ROLITETRACYCLINE]	0.97	9.3	0.5	8.8	0.54
CCCN1CCCC[C@H]1C(=O)Nc1c(C)cccc1C [ROPIVACAINE]	5.5	2.3	0.06	2.2	0.75
CN[C@@H]1[C@@H](O)[C@@H](O[C@@H]2[C@@H](O)[C@H](O[C@H]3OC(CN)=CC[C@H]3N)[C@@H](N)C[C@H]2N)OC[C@]1(C)O [SISOMICIN]	1	3.2	0.15	2.4	0.19
Cc1cn([C@H]2C=C[C@@H](CO)O2)c(=O)[nH]c1=O [STAVUDINE]	8.2	1.4	1	1.4	0.67
[H]/N=C(/N)N[C@H]1[C@H](O)[C@@H](O)[C@H](O[C@@H]2O[C@@H](C)[C@](O)(C=O)[C@H]2O[C@@H]2O[C@@H](CO)[C@H](O)[C@@H](O)[C@@H]2NC)[C@@H](N/C(N)=N\[H])[C@@H]1O [STREPTOMYCIN]	0.78	7.3	0.65	4.3	0.34
CC1(C)S[C@@H]2[C@H](NC(=O)C(c3ccccc3)S(=O)(=O)O)C(=O)N2[C@H]1C(=O)O (stereo not given in full) [SULBENICILLIN]	1.6	1.6	0.5	1.2	0.15
Cc1ccc(C(=O)Nc2ccc(S(=O)(=O)O)c3cc(S(=O)(=O)O)cc(S(=O)(=O)O)c23)cc1NC(=O)c1cccc(NC(=O)Nc2cccc(C(=O)Nc3cc(C(=O)Nc4ccc(S(=O)(=O)O)c5cc(S(=O)(=O)O)cc(S(=O)(=O)O)c45)ccc3C)c2)c1 [SURAMIN]	0.0057	1400	0.001	1200	0.54
Nc1c2c(nc3ccccc13)CCCC2 [TACRINE]	56	3.3	0.25	3.3	11
CCCCC/C=C\CCC(=O)N[C@H]1[C@H](Oc2c3cc4cc2Oc2ccc(cc2Cl)[C@@H](O[C@@H]2O[C@H](CO)[C@@H](O)[C@H](O)[C@H]2NC(C)=O)[C@@H]2NC(=O)[C@H](NC(=O)[C@@H]4NC(=O)[C@H]4NC(=O)[C@@H](Cc5ccc(c(Cl)c5)O3)NC(=O)[C@H](N)c3ccc(O)c(c3)Oc3cc(O)cc4c3)c3ccc(O)c(c3)-c3c(O[C@H]4O[C@H](CO)[C@@H](O)[C@H](O)[C@@H]4O)cc(O)cc3[C@@H](C(=O)O)NC2=O)O[C@H](CO)[C@@H](O)[C@@H]1O [TEICOPLANIN A2-1]	0.2	140	0.11	150	1.5
CC[C@H]1OC(=O)[C@H](C)C(=O)[C@H](C)[C@@H](O[C@@H]2O[C@H](C)C[C@H](N(C)C)[C@H]2O)[C@](C)(OC)C[C@@H](C)C(=O)[C@H](C)[C@H]2N(CCCCn3cnc(-c4cccnc4)c3)C(=O)O[C@]12C [TELITHROMYCIN]	14	3.6	0.41	12	3
COc1cc([C@@H]2c3cc4c(cc3[C@@H](O[C@@H]3O[C@@H]5CO[C@@H](c6cccs6)O[C@H]5[C@H](O)[C@H]3O)[C@H]3COC(=O)[C@H]23)OCO4)cc(OC)c1O [TENIPOSIDE]	0.19	37	0.0044	16	0.41
C[C@H](Cn1cnc2c(N)ncnc21)OCP(=O)(O)O [TENOFOVIR ANHYDROUS]	3.1	3.8	0.93	5.8	0.83
O=C1CCC(N2C(=O)c3ccccc3C2=O)C(=O)N1 (stereo not given) [THALIDOMIDE]	3.4	4.3	0.4	4.7	0.95
CCCC(C)C1(CC)C(=O)NC(=S)NC1=O (stereo not given) [THIOPENTAL]	8.2	2.4	0.14	2	1.2
CC1(C)S[C@@H]2[C@H](NC(=O)[C@H](C(=O)O)c3ccsc3)C(=O)N2[C@H]1C(=O)O [TICARCILLIN]	1.8	1.5	0.55	1	0.16
CN(C)c1cc(NC(=O)CNC(C)(C)C)c(O)c2c1C[C@H]1C[C@H]3[C@H](N(C)C)C(O)=C(C(N)=O)C(=O)[C@@]3(O)C(O)=C1C2=O [TIGECYCLINE]	3.8	53	0.2	48	12
CCOC(=O)C1(c2ccccc2)CCC=CC1N(C)C (stereo not given) [TILIDINE]	16	4.2	0.21	5	4
